What was measured:
[1] = biological target: T1, Human thrombin (Homo sapiens, UniProt P00734); assay: Test A: Determination of Thrombin Clotting Time (TT); assay type: biochemical; conditions: concentration of inhibitor that doubles the thrombin clotting time for human plasma
T1 construct: conversion of the proenzyme prothrombin to the active enzyme thrombin; purchased Sigma Chem. Co T 6769
Description: Determination of Thrombin Clotting Time (TT)
The inhibitor solution (25 μL) was incubated with plasma (25 μL) for three minutes. Human thrombin (T 6769; Sigma Chem. Co) in buffer solution, pH 7.4 (25 μL) was then added and the clotting time measured in an automatic device (KC 10; Amelung).
The clotting time in seconds was plotted against the inhibitor concentration, and the IC50TT was determined by interpolation.
IC50TT is the concentration of inhibitor in the test that doubles the thrombin clotting time for human plasma.

[2] = rat, in vivo
From the text: Determination of Thrombin Time Ex Vivo
The inhibition of thrombin after oral or parenteral administration of the compounds of formula I, dissolved in ethanol:Solutol™:water (5:5:90), were examined in conscious rats which, one or two days prior to the experiment, were equipped with a catheter for blood sampling from the carotid artery. On the experimental day blood samples were withdrawn at fixed times after the administration of the compound into plastic tubes containing 1 part sodium citrate solution (0.13 mol per L) and 9 parts of blood. The tubes were centrifuged to obtain platelet poor plasma. The plasma was used for determination of thrombin time as described below.
The citrated rat plasma, 100 μL, was diluted with a saline solution, 0.9%, 100 μL, and plasma coagulation was started by the addition of human thrombin (T 6769, Sigma Chem Co, USA) in a buffer solution, pH 7.4, 100 μL. The clotting time was measured in an automatic device (KC 10, Amelumg, Germany). […]
Based on the estimated plasma concentrations of the active thrombin inhibitor (which assumes that thrombin time prolongation is caused by the aforementioned compound) in the rat, the area under the curve after oral and/or parenteral administration of the corresponding prodrug compound of formula I was calculated (AUCpd) using the trapezoidal rule and extrapolation of data to infinity. […]

N=C(N)c1ccc(CNC(=O)C2CCN2C(=O)C2(O)CCOc3c(OC(F)F)cc(Cl)cc32)cc1 (single isomer, unassigned) [Example 8, (S)- or (R)-4-Hydroxy-6-chloro-8-difluoromethoxychroman-4-yl-C(O)-Aze-Pab×HOAc]
IC50 [1]: < 100 nM

CON=C(N)c1ccc(CNC(=O)[C@@H]2CCN2C(=O)C2(O)CCOc3c(OC(F)(F)F)cc(Cl)cc32)cc1 (stereo partly shown) [Example 7, 4-Hydroxy-6-chloro-8-trifluoromethoxychroman-4-yl-C(O)-Aze-Pab(OMe)]
oral and/or parenteral bioavailability as the corresponding active inhibitor (free amidine) [2]: exhibit oral and/or parenteral bioavailability

N=C(N)c1ccc(CNC(=O)C2CCN2C(=O)C2(O)CCOc3c(OC(F)(F)F)cc(Cl)cc32)cc1 (stereo not shown) [Example 6, 4-Hydroxy-6-chloro-8-trifluoromethoxychroman-4-yl-C(O)-Aze-Pab]
IC50 [1]: < 100 nM

CON=C(N)c1ccc(CNC(=O)[C@@H]2CCN2C(=O)C2(O)CCOc3c(OC(F)F)cc(Cl)cc32)cc1 (single isomer, unassigned) [Example 9, (S)- or (R)-4-Hydroxy-6-chloro-8-difluoromethoxychroman-4-yl-C(O)-Aze-Pab(OMe)]
oral and/or parenteral bioavailability as the corresponding active inhibitor (free amidine) [2]: exhibit oral and/or parenteral bioavailability
